Source: patent US20200368260A1, “USE OF BENZOPYRAN COMPOUND IN PREPARATION OF PRODUCT FOR REGULATING LIPID METABOLISM AND COMPOSITION OF THE SAME” (priority 2019, published 2020)

What was measured:
Assay type in all cases: cell-based, human
p62 [1] = assay: Q-PCR, mRNA expression in oleic acid induced HepG2 cells; conditions: for mRNA level of p62: high dose group; for mRNA expression of p62: low and medium doses
From the text: (§1) The culture, model establishment and drug treatment manners of the cells were the same as those in 1.2.4. After the completion of the treatment, the cells were collected, total RNA was extracted, then cDNA was synthesized by reverse transcription, and finally, the change of the transcription level of autophagy-related genes of the HepG2 cell in a nonalcoholic fatty liver disease model under the actions of petunidin-3-O-β-D glucoside and malvidin-3-O-β-D glucoside was detected by the real-time fluorescent quantitative PCR method, where the following method can be adopted:
(§2) 1. After the completion of drug treatment, the cells were washed with PBS for 2 times, added with 1 mL Trizol per about 1×10^7 cells, then pipetted up and down with a 1 mL pipette gun (free of RNA enzymes) until the liquid was clear and had no cell aggregate, transferred into a […] RNA-enzyme-free EP tube, mixed well by inverting up and down for 10 times, and lysed for 5 minutes at room temperature.
(§3) 1. The first strand of cDNA was synthesized by using 800 ng of total RNA as a template and a total system of 20 μL. A nuclease-free PCR tube in the ice bath was added with the following reagents:
(§4) 5. A reverse transcription reaction was carried out on a PCR machine under the following conditions: incubation at 25° C. for 10 min, cDNA synthesis at 50° C. for 30 min, and reaction termination at 85° C. for 5 min. The resulting cDNA product was stored at −20° C.
(§5) 1. According to the gene sequence provided in the literature, the primers were synthesized by Sangon Biotech (Shanghai) Co., Ltd., and the primer sequences of β-actin, APG5L, Apg7, p62 , Bcl-1 and FASN were shown in the table below:
(§6) 2. The above reaction solution was placed into a real-time quantitative PCR instrument for amplification, and the PCR reaction conditions were as shown in the table below:
(§7) For the expression of the target gene, the difference was corrected with a reference gene β-actin by a Ct value comparison method, and the changing multiple was 2^−ΔΔCt. The calculation formula was: the changing multiple=2^−ΔΔCt, where ΔΔCt=(Ct of the target gene−Ct of the reference gene) the drug treatment group−(Ct of the target gene−Ct of the reference gene) control.

Bcl-1 [2] = assay: as above
From the text: as §1, §2, §3, §4, §5, §6, §7

APGSL = assay: as above
From the text: as §1, §2, §3, §4, §5, §6, §7

APG7 = assay: as above; conditions: for mRNA level of Apg7: high dose group; for mRNA expression of Apg7: low and medium doses
From the text: as §1, §2, §3, §4, §5, §6, §7

Fas = assay: as above
From the text: as §1, §2, §3, §4, §5, §6, §7

p62 [3] = assay: Western blotting, protein expression in oleic acid induced HepG2 cells; conditions: high dose group
Method: (§8) The culture, model establishment and drug treatment manners of the cells were operated according to 1.2.3. After completion, cells were collected, cytoplasmic proteins were extracted, and protein electrophoresis was conducted after quantification. Particularly the following methods were used:
(§9) When the cell confluence reached 70%, 0.5 mM oleic acid was added to treat the cells for 24 h. After completion, the cells were collected and the cytoplasmic protein was extracted, and the protein electrophoresis was conducted after quantification. The electrophoresis method was as follows:
(§10) After cell culture was completed, the culture plate was taken out, the culture medium in the well was discarded, the pellet was washed twice with PBS, placed onto an ice bath, and added with 100 μL of a protein lysis buffer (RIPA) (PMSF was added into the cell lysis buffer at 1:1000 within few minutes before the use, with a final concentration of 1 mM) per well. After the cells were lysed for about […], the cells were scraped off with a cell scraper, pipetted into a 1.5 mL centrifuge tube (which could be crushed with an ultrasonic cell disruptor for 3-5 times), then centrifuged at 12,000 rpm under 4° C. for 15-20 mM. The supernatant was taken and transferred into a new centrifuge tube for protein quantification or storage at −80° C.
(§11) Theprotein content was determined by a BCA method, and the operation method was carried out according to the instructions of the kit. After the protein concentration was measured, the protein sample was added with a 5× loading buffer and mixed uniformly at 1:4, then subjected to water bath at 100° C. for […] (entangling with a sealing film to prevent bouncing off), and stored at 4° C.
(§12) The specific operation method of protein electrophoresis was in accordance with the relevant references. Since each of the molecular weight of the target proteins was within 10-80 KDa except for FASN (the separation gel was prepared according to the following table), the separation gel concentration was selected to be 10%, and the concentration of the FASN protein separation gel was selected to be 6%.
(§13) A spacer gel was formulated according to the following table, and sample loading was conducted. After completion, electrophoresis should be conducted as soon as possible, where concentration was conducted at 80 v for 30 min, and then electrophoresis was conducted at 120 v until the front edge ran to the lower edge of the separation gel, and the electrophoresis was stopped.
3. […]

Bcl-1 [4] = assay: as above; conditions: high dose group
Method: as §8, §9, §10, §11, §12, §13
3. […]

| Structure (SMILES) | mRNA level of p62 (p62 [1]) | mRNA expression of p62 (p62 [1]) | mRNA expression level of Bcl-1 (Bcl-1 [2]) | mRNA level of APGSL (APGSL) | mRNA level of Apg7 (APG7) | mRNA expression of Apg7 (APG7) | mRNA expression level of Fas (Fas) | protein expression of p62 (p62 [3]) | protein expression of Bcl-1 (Bcl-1 [4]) |
| --- | --- | --- | --- | --- | --- | --- | --- | --- | --- |
| COc1cc(-c2[o+]c3cc(O)cc(O)c3cc2O[C@@H]2O[C@H](CO)[C@@H](O)[C@H](O)[C@H]2O)cc(OC)c1O [malvidin-3-O-β-D glucoside] | up-regulate | reduced | significantly decrease | up-regulate | up-regulate | reduced | significantly decrease | inhibition trend | inhibition trend |
| COc1cc(-c2[o+]c3cc(O)cc(O)c3cc2O[C@@H]2O[C@H](CO)[C@@H](O)[C@H](O)[C@H]2O)cc(O)c1O [petunidin-3-O-β-D glucoside] | up-regulate | reduced | significantly decrease | up-regulate | up-regulate | reduced | significantly decrease | inhibition trend | inhibition trend |
